Measurements taken from article PMC6944649, “Population Pharmacokinetics, Efficacy Exposure-response Analysis, and Model-based Meta-analysis of Fenebrutinib in Subjects with Rheumatoid Arthritis” (Pharmaceutical Research, 2020).
One block for each compound: values may come before it.

Key:
[1] = test system: patients with rheumatoid arthritis; assay: Exposure-response (E-R) analysis of longitudinal DAS28 (CRP) in Phase 2 trial GA29350; assay type: in vivo, human
Description: (§1) GA29350 (ANDES, ClinicalTrials.gov Identifier: NCT02833350) was a multicenter, Phase 2, randomized, double-blind, placebo-controlled, parallel-group, dose-ranging trial to evaluate the efficacy and safety of fenebrutinib in patients with moderate to severe active RA and an inadequate response to previous MTX therapy (cohort 1) or anti-TNF therapy (cohort 2) ([24],[25]).
(§2) In cohort 1, 480 patients were enrolled, and were randomly assigned to 1 of 5 parallel treatment arms (3 fenebrutinib arms, 1 placebo arm, and 1 adalimumab arm). In the fenebrutinib and placebo arms, subjects received 50 mg QD, 150 mg QD, or 200 mg BID fenebrutinib tablets or placebo tablets, together with subcutaneous (SC) placebo injections every other week for 12 weeks (n = 40 in the 50 mg arm, and n = 109 to 111 in each of the other 4 arms). In the active comparator arm, patients received adalimumab 40 mg SC every other week and placebo tablets for 12 weeks. In cohort 2 (n = 98 enrolled), patients received 200 mg fenebrutinib BID or placebo tablets for 12 weeks.
(§3) Treatment responses in RA clinical trials are commonly evaluated by the American College of Rheumatology improvement criteria for 20, 50, and 70% threshold values (ACR20, ACR50, and ACR70, respectively), which is a binary response variable, and by the Disease Activity Score with 28-joint counts (DAS28), which is a continuous variable ([27],[28]). Both types of endpoints can be measured repeatedly during the course of the treatment period. The proportion of patients achieving ACR50 responses and analysis of longitudinal DAS28 (CRP) (DAS based on 28 joints and C-reactive protein value) were evaluated as the primary, key secondary, and secondary endpoints in the Phase 2 trial, and therefore, were of primary interest among clinical efficacy endpoints modeled for fenebrutinib. The E-R analyses aimed to establish the relationship between patient-specific fenebrutinib exposure with clinical efficacy endpoints of interest. […]

[2] = Population pharmacokinetic (popPK) analysis of fenebrutinib plasma concentrations (Phase 1 GA29347, GP29832 and Phase 2 GA29350); assay type: in vivo, human
Experimental: Fenebrutinib plasma concentrations were determined by high performance liquid chromatography with tandem mass spectrometry (MS/MS) detection (Covance Laboratories Inc., USA). Calibration plots were linear throughout the range of 0.5 to 500 ng/mL (lower and upper limits of quantification, respectively) for fenebrutinib in human plasma. Relative standard deviation of precision was <7.8%, and the accuracy of the method was between 91.3% and 102.7%.
Fenebrutinib plasma concentrations from subjects providing all available PK data after tablet administration in the clinical studies were integrated into the popPK analysis. The model was characterized initially in healthy subjects ([22]) from the Phase 1 multiple ascending dose (MAD) (GA29347) and a Phase 1 relative bioavailability/food effect/drug-drug interaction (GP29832, ClinicalTrials.gov Identifier: NCT02699710) studies, and later updated to incorporate the Phase 2 data from the three fenebrutinib-treated arms in patients with RA.
The popPK model was developed by introducing features in the order of increasing complexity, beginning with very simple models (e.g. one-compartment with first-order elimination), and continuing until further improvement in model fit was not supported by the data.
Covariate analysis first investigated the effects of pre-defined demographic, laboratory, prognostic, and treatment covariates on all the model parameters by using univariate screening. If >10% of a covariate was missing, the covariate was not included in the popPK analysis. Otherwise, the value of missing covariate observations was imputed as the median of the remaining values from an appropriate sub-population. For example, the missing baseline body weight value was imputed as the gender-adjusted median body weight of the remaining subjects. For categorical covariates, the most frequently occurring value was imputed for subjects with missing values in each trial. Concomitant proton pump inhibitor (PPI) and food were categorized as time-varying covariates, whereas the other categorical covariates were considered as baseline (non-time-varying) covariates. Next, covariates selected from the univariate screening (p value <0.05) were included in the evaluation of a full model followed by backwards elimination (p value <0.01). Effects of continuous covariates were incorporated into the model using the power function and normalized using the median of the covariate. Effects of categorical covariates were parameterized as proportional effects in the model, in which the fractional change on a model parameter was estimated, and the typical category constituted the largest proportion in the analysis population.
The final model was determined on the basis of objective function value, physiological plausibility of model parameter estimates, numerical convergence success, parameter estimate precision (relative standard errors <50%), and visual predictive check (VPC) plots. Goodness-of-fit plots were produced to verify the general agreement of fitted values with observed data. Prediction-corrected visual predictive check (pcVPC) was performed by normalizing the observed and simulated dependent variable based on the typical population prediction for the median independent variable in the bin ([26]). The pcVPC was stratified to evaluate the covariate effects of interest, whenever applicable. […]
Model development was carried out using first order conditional estimation with interaction (FOCE-I) as implemented in NONMEM (version 7.3, ICON Development Solutions, Ellicott City, MD). Post-processing of NONMEM analysis results was carried out in R (version 3.2.2, R Development Core Team, 2008).

[3] = test system: patients with rheumatoid arthritis; assay: Exposure-response (E-R) analysis of longitudinal ACR20, ACR50, ACR70 in Phase 2 trial GA29350; assay type: in vivo, human
Description: as §1, §2, §3

[4] = Phase 1 relative bioavailability/food effect/drug-drug interaction study (GP29832), non-compartmental analysis; assay type: in vivo, human; details: healthy volunteers
[5] = test system: patients with rheumatoid arthritis; assay: Model-based meta-analysis (MBMA) of ACR20, ACR50, ACR70; assay type: in vivo, human
Experimental: An efficacy and safety meta-analysis database was constructed in July 2017 using publicly available data of randomized trials in RA, based on the guidelines in the Cochrane Handbook for Systematic reviews. For this, a systematic review of publicly available data from the PubMed, Cochrane Library, and Embase databases was conducted using the search term “rheumatoid arthritis”. Furthermore, an existing database that contained data published in or before 2012 ([30]) was augmented using an additional, systematic, and quality-controlled procedure to search for relevant published studies, extract their data, and add to the existing database yielding pertinent data published through 2017.
The summary data of the database were explored systematically to determine the amount of data available for each treatment, efficacy and safety endpoint across trials, distribution of mean patient characteristics, and to graphically view the time course of longitudinal endpoints, placebo effect, active treatment effect from each of the comparator treatments, and the effects of patient and trial characteristics. Response rates of ACR20, ACR50, and ACR70 in terms of the proportion of patients achieving specified thresholds were the most prevalent efficacy endpoints in the database, and therefore, were chosen as the variables for model development using MBMA. Because of the relatively few adverse events observed in the fenebrutinib Phase 2 trial in RA ([24]), MBMA for safety events, such as serious infections, was not conducted.
The model simultaneously fit ACR20, ACR50, and ACR70 longitudinal data, and a non-linear mixed effects (NLME) estimation method was carried out using R. This hierarchical regression model used maximum likelihood estimation, and multiple levels of heterogeneity were described as mixed effect variability terms accommodating between-trial and within-trial variability. […]
The adequacy of model fits across trials was evaluated by visually inspecting time course plots of observed distributions vs. predicted values. […]

BTK = test system: BTK; parameters: method as in PMID 29484638; details: healthy volunteers, Phase 1; cited from earlier work
[6] = parameters: method as in PMID 29484638; details: Phase 1, cited from earlier work

apparent clearance (CL/F) decrease with concomitant administration of PPI ([2]; concomitant PPI): 33.7% | CL/F: Apparent systemic clearance ([2]; final popPK model estimate θ1, oral, typical RA patient): 19.5 L/h | NTR: Number of transit compartments ([2]; final popPK model estimate θ7, transit compartment absorption model): 14.9 | MTT: Mean transit time ([2]; final popPK model estimate θ8): 0.849 h | Food effect on MTT ([2]; final popPK model estimate θ11, covariate effect): 1.43 | PPI effect on MTT ([2]; final popPK model estimate θ12, concomitant proton pump inhibitor): 0.835 | PPI and food effect on MTT ([2]; final popPK model estimate θ13): 2.26 | PPI effect on F1 ([2]; final popPK model estimate θ14, F1 relative extent of absorption): 0.657 | PPI and food effect on F1 ([2]; final popPK model estimate θ15): 0.693 | Food effect on NTR ([2]; final popPK model estimate θ16): 0.864 | Tablet effect on NTR ([2]; final popPK model estimate θ17, formulation effect): 0.049 | Vd/F ([2]; human, plasma, oral, final popPK model estimate θ2, read-out: V1/F: Apparent central volume of distribution): 381 L | ω^2CL/F ([2]; inter-individual variability ω1.1): 0.0732 | ω^2V1/F ([2]; inter-individual variability ω2.2): 0.100 | ω^2MTT ([2]; inter-individual variability ω8.8): 0.0861 | ω^2F1 ([2]; inter-individual variability ω9.9): 0.131 | ω^2IOV on F1 ([2]; inter-occasion variability ω10.1): 0.299 | higher apparent clearance in healthy subjects than patients with RA ([2]; two Phase 1 studies vs Phase 2 trial): 52% | PPI effect on Cmax [4]: PPI decreases the Cmax
Compound: C[C@H]1CN(C2COC2)CCN1c1ccc(Nc2cc(-c3ccnc(N4CCn5c(cc6c5CC(C)(C)C6)C4=O)c3CO)cn(C)c2=O)nc1 [fenebrutinib]
Time of 50% drug effect ([1]; DAS28 (CRP) E-R model θ4): 47 days | Maximum drug effect over time (DAS28) ([1]; DAS28 (CRP) E-R model θ6): -0.964 | ω2Max drug effect ([1]; DAS28 (CRP) E-R model ω2.2, inter-individual variability): 0.283 | Max drug effect over time - Eastern Europe ([3]; ACR20/50/70 E-R model θ9, logit scale): 1.39 | Max drug effect over time - Latin America ([3]; ACR20/50/70 E-R model θ14): 2.06 | efficacy versus exposure (ACR responses and DAS28 (CRP)) ([3]; graphical exploration and model-based simulation, cohort 1 MTX-IR patients, exposure range of Phase 2 study): plateau of efficacy was achieved | food effect on concentration-time profile and Tmax [4]: food blunts the concentration-time profile and delays the Tmax | efficacy in terms of ACR20, ACR50, and ACR70 compared to the registrational doses of adalimumab and tofacitinib ([5]; MBMA simulation, 200 mg BID, TNF-IR patients, 12 weeks after initiation of treatment): comparable efficacy | ED50, dose at which 50% of efficacy ([5]; calculated from E-R EC50 and fixed in MBMA model): 525 mg/week | inhibition of BTK (BTK): dose- and concentration-dependent inhibition | accumulation ([6]; following twice daily dosing): modest accumulation | increase of plasma exposures with dose ([6]; healthy subjects): approximately dose-proportionally | steady-state half-life ([6]; healthy subjects): 4.2 to 9.9 h | time of peak plasma concentrations after oral administration ([6]; healthy subjects): 1 to 3 h

Compound: adalimumab [reference compound]
ACR20, ACR50, and ACR70 response rates in arm of the fenebrutinib Phase 2 trial versus historical data ([5]; adalimumab 40 mg SC every other week arm, MBMA): consistent with historical data
